Results on two compounds are retold here after patent publication US20260027096A1, “PHD INHIBITORS” (Oxford University Innovation Limited, priority 2023, published 2026).

Assay [1] deals with primary human AML cells (patient samples). In words: Apoptosis of primary human AML patient samples. Type of assay: cell-based. The note with it: 50 μM. Here is the method:
Frozen AML samples were retrieved from Barts Cancer Institute Biobank and quickly thawed at 37° C. Upon thawing, T cells were depleted from all samples using EasySep™ Human TCR Alpha/Beta Depletion Kit (Stem Cell Technologies, #17847). Enriched samples were plated in concentration 0.4-1.0×10^6/mL in Myelocult H5100 medium (Stem Cell Technologies, #05150) supplemented with 20 ng/ml IL-3, G-CSF and TPO (Biolegend) in co-culture with irradiated MS-5 cells and treated with 50 μM Dap, 50 μM IOX5 (68, example 46), 1 μM Venetoclax or vehicle control for 7 days. After 3 days of treatment, half the sample was used for plating CFU assays and initial analyses, the other half was given fresh medium containing the corresponding agent. After 7 days, viable cell numbers were counted, viability was assessed using Annexin V FITC/PI stain, cell cycle was measured using PI, and the expression of CD45, CD34, CD11b and CD14 was determined. CFC assays were counted 11 days after plating. Samples were deemed sensitive to treatment if either a decrease in viability or a decrease in proliferation, as validated by cell cycle phase distribution, was detected.
To investigate the clinical utility of PHD inhibition in human AML, it was next determined the impact of Dap or IOX5 (68, example 46) on AML patient samples (FIG. 29), focusing on poor-risk AML, which is characterised by a particularly low overall patient survival rate^73.
Finally, the clinical applicability of PHD inhibition in AML was validated by treating independent patient-derived primary AML cells with Daprodustat (2) and IOX5 (68, example 46). […] Taken together, Examples 163 to 167 provide genetic and pharmacological evidence that PHD inhibition is a plausible therapeutic strategy in AML.

Assay [2] concerns HIF-1α in MOLM13, OCI-AML3, MV411 and THP-1 cells. Put plainly: Western blot of HIF-1α in human AML cell lines. The class given is cell-based. Particulars: for HIF-1α protein level (immunoblot): human AML cell lines, 50 μM, 48 hrs. On the procedure:
Total protein extracts (45 μg) were subjected to SDS-PAGE (NuPAGE™ 4-12% Bis-Tris Plus Gel, ThermoFisher Scientific, NP0323BOX) and then transferred onto a polyvinylidene difluoride membranes using wet transfer. Membranes were blocked in 5% milk-TBST (TBS with 0.1% Tween20) and probed with anti-HIF1-α (Novus Biological, NB100-105, 1:1000, ON at 4° C.) and anti-β-actin (Cell Signalling Technology, #3700, 1:10 000, ON at 4° C.). After incubation with appropriate horseradish peroxidase- coupled secondary antibody (Cell Signalling Technology, Anti-mouse IgG, #7076, 1:2000, 2 h at room temperature), proteins were detected with Clarity Western ECL Substrate (BioRad, #1705061) and acquired on the Amersham Imager 600 (GE Healthcare Life Sciences).
Equipped with currently available PHD inhibitors and newly generated IOX5 (68, example 46), the impact of pharmacological PHD inhibition on AML cells was assessed. […] Thus, while PHD inhibition consistently stabilises HIF-1α protein across all tested AML cell lines, HIF-2α stabilisation is variable and cell line-specific.

The next assay concerns human THP-1 cells. Put plainly: Proliferation and apoptosis of THP-1 cells. The class given is cell-based. Particulars: THP-1, 50 μM. The text has this: (§1) Viable cells were counted by trypan blue exclusion at the indicated time points. To analyse cells undergoing apoptosis, cells were suspended in binding buffer containing PE-conjugated Annexin-V or FITC-conjugated Annexin-V, and either PI or DAPI.
(§2) To determine consequences of Daprodustat (2) and IOX5 (68, example 46) treatment on AML cells driven by the MLL-AF9→MEIS1/HOXA9 axis, mouse iMLL-AF9-and Meis1Hoxa9-transformed AML cells were employed, as well as human THP-1 cells, which harbour the MIL-AF9 translocation. […] Thus, providing compelling evidence that PHD inhibition compromises AML cells driven by the MLL-AF9→MEIS1/HOXA9 axis.

Assay [3] concerns mouse iMLL-AF9- and Meis1Hoxa9-transformed AML cells. Put plainly: Proliferation and apoptosis of murine iMLL-AF9 and Meis1Hoxa9 AML cells. Type of assay: cell-based. Particulars: 50 μM.
Text: as §1, §2

The subject of assay [4] is murine AML cells harbouring FLT3-ITD mutations (with and without NPM1 mutations), PML-RARα and AML1-ETO. Put plainly: Proliferation and apoptosis of murine AML cells with other drivers. Type of assay: cell-based, mouse.
Text: as §1
To validate the anti-leukaemic effect of PHD inhibition on AML cells transformed by drivers independent from the MLL/Meis1/Hoxa9 axis, murine AML cells harbouring FLT3-ITD mutations were employed (with and without NPM1 mutations), PML-RARα and AML1-ETO.

In assay [5] the test system is K562, OCI-AML3, KASUMI1, MV-4-11 and MOLM13 cells. In words: Proliferation and apoptosis of human leukaemic cell lines. Type of assay: cell-based. Particulars: 50 μM.
Text: as §1
To examine the impact of PHD inhibition in human leukaemia cells with other mutational backgrounds, different myeloid leukaemia cells were used, namely K562 (CML, with BCR-ABL translocation), OCL-AML3 cells (AML with DNMT3A, NRAS and NPM1 mutations), KASUMI1 cells (AML with AML-ETO translocation), MV-4-11 (AML with FLT3-ITD mutation), and MOLM13 (AML with FLT3-ITD mutation and MLL-AF9 translocation). […] Thus, multiple potent PHD inhibitors, with distinct mode of action, compromise leukaemic cells independently from their mutational status.

“Also recorded” adds a separate entry of the source.

As for `O=C(O)CNC(=O)c1c(O)n(C2CCCCC2)c(=O)n(C2CCCCC2)c1=O` [Daprodustat, daprodustat, reference compound], the entries for the “apoptosis of primary human AML cells” value in assay [1] and in assay [1] (listed as Dap) were “significantly increased primary human AML cell apoptosis” and “clearly increased apoptosis”, respectively. Also, in assay [2], the “HIF-1α protein level (immunoblot)” value is “strongly stabilised HIF-1a; also recorded: increased HIF-1α levels”. Besides, the apoptosis entry (in the assay on human THP-1 cells; in assay [3]; in assay [5]) was “induced their apoptosis” throughout. The proliferation result in the assay with human THP-1 cells is “compromised their proliferative capacity”; in assay [3], “compromised their proliferative capacity”; in assay [4] it was “reduced the proliferative rate”; in assay [5] it was “consistently compromised the proliferation”. In addition, the “apoptosis (Annexin-V+DAPI+)” value in assay [4] was “induced apoptosis”.
In the case of `O=C(NCC1CCC(C(F)(F)F)CC1)c1c[nH]c(-n2cccn2)cc1=O` (stereo not shown) [IOX5], in assay [1], the “apoptosis of primary human AML cells” value is recorded as “clearly increased apoptosis; also recorded: significantly increased primary human AML cell apoptosis”. For the same compound, in assay [2] (THP-1 cells, continuous treatment for 96 hours), the “HIF-1α protein level over time (western blot)” value was “substantially stabilised after 3-12 hours, its levels decreased between 24-48 hours, then increased 72-96 hours after treatment initiation”. Moreover, in assay [2], the “HIF-1α protein level (immunoblot)” value is recorded as “strongly stabilised HIF-1a; also recorded: increased HIF-1α levels”. For the same compound, the apoptosis entry (with human THP-1 cells; in assay [3]; in assay [5]) was “induced their apoptosis” in each case. Also, the proliferation entry is recorded as “compromised their proliferative capacity” with human THP-1 cells, “compromised their proliferative capacity” in assay [3], “reduced the proliferative rate” in assay [4] and “consistently compromised the proliferation” in assay [5]. For the same compound, the “apoptosis (Annexin-V+DAPI+)” value in assay [4] was “induced apoptosis”.
